The experiment addresses T1, integrin αV/β5 (Homo sapiens, UniProt P06756+P18084).
T1 construct: expressed in transfected cells; host or cells: HEK293T
As to the kind of experiment: FAK phosphorylation in HEK293T cells with forced expression of integrin αV/β5. The class given is cell-based. On the procedure:
100 nM irisin was incubated with 5 nM indicated his-tag integrins followed by immunoprecipitation using Ni-NTA agaroses. Precipitated integrins and co-precipitated irisin were analyzed by immunoblot analysis. […] HEK293T cells were seeded and incubated until 50% cell density. The cells were transfected with 0.1 μg plasmids of indicated integrins. After 48 hours, the cells were incubated with Freestyle293 medium for 3 hours and were treated with indicated concentration of irisin for 5 minutes. Cells were lysed to detect the indicated protein level using immunoblot analysis. […] MLO-Y4 cells were treated as described in FIG. 2D with addition of pretreatment of indicated antagonistic antibodies for 10 minutes. Cells were lysed to detect the indicated protein level using immunoblot analysis. […] MLO-Y4 cells were treated as described in FIG. 1B except with addition of the pretreatment of indicated antagonistic antibodies for 10 minutes. Sclerostin mRNA level was analyzed by qRT-PCR. Cyclophilin was used for house-keeping gene. […] The ribbon diagram is colored by HDX stabilization/destabilization. Percentages of deuterium differences are color-coded according to the smooth color gradient key at the bottom. Crystal structure of irisin dimer is from Protein Data Bank (PDB) (4 lsd) and a homology model of integrin β5 was built based on integrin β3 structure from PDB (4MMX).
100 nM irisin was incubated with 5 nM indicated his-tag integrins followed by immunoprecipitation using Ni-NTA agaroses. Precipitated integrins and co-precipitated irisin were analyzed by immunoblot analysis. […] HEK293T cells were seeded and incubated until 50% cell density. The cells were transfected with 0.1 μg plasmids of indicated integrins. After 48 hours, the cells were re-split to indicated dose of vitronectin-coated plates. Cells were incubated with culture medium for 3 hours. Cells were lysed to detect the indicated protein level using immunoblot analysis. FIG. 15C and FIG. 15D show the immunoblot data. Cells were treated and analyzed as FIG. 14B except using plasmids encoding integrin α5/β1 or integrin α11/β1 (FIG. 15C) integrin αV/β1(FIG. 15D).
MLO-Y4 cells were treated and analyzed as described in FIG. 5A with addition of pretreatment of control RGD peptide, cyclo RGDyK (cRGDyK), or SB273005. […] HEK293 cells were treated and analyzed as described in FIG. 14B except the treatment of different dose of cyclo RGDyK. […] 8 weeks old male mice were treated and analyzed as described in FIG. 5D except the additional group with co-injection of 1 mg/kg SB273005. […]
Cells were harvested in RIPA buffer containing protease-inhibitor cocktail and phosphataseinhibitor cocktail. […] Protein levels were analyzed via western blot using indicated antibody. […]

The values below come from US20210063414A1, “METHODS FOR PREVENTING AND/OR TREATING BONE LOSS CONDITIONS BY MODULATING IRISIN” (Dana-Farber Cancer Institute, Inc., priority 2018, published 2021).

pIC50: −log10 of the molar value.

T1 sequence (P06756 31-889 limits assumed): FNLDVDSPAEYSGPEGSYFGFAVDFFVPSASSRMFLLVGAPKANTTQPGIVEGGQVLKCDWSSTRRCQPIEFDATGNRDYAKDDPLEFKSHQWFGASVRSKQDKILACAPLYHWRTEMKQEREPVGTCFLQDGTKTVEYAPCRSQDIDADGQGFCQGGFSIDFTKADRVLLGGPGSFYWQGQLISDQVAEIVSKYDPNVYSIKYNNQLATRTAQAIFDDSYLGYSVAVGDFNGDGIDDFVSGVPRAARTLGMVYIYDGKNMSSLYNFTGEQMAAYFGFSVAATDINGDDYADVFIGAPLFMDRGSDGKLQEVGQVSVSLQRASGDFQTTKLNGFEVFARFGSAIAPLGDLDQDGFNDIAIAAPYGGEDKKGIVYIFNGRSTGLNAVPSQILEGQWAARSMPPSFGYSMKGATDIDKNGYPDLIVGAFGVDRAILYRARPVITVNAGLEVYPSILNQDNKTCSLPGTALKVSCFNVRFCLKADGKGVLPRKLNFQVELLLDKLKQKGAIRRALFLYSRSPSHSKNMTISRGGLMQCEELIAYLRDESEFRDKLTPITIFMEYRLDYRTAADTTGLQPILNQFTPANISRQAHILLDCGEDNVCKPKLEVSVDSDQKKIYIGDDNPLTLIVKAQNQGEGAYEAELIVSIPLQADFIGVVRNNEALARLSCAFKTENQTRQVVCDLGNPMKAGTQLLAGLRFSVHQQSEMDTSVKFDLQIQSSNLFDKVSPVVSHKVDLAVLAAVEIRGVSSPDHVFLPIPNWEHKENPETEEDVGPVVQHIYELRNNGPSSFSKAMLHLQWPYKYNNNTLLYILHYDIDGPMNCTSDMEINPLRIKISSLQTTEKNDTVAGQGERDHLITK
T1 sequence (P06756 891-1048 partner limits assumed): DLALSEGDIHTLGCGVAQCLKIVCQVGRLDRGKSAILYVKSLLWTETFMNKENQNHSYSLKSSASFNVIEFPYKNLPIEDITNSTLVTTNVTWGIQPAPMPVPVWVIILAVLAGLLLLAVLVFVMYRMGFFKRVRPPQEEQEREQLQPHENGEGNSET
T1 sequence (P18084 24-799): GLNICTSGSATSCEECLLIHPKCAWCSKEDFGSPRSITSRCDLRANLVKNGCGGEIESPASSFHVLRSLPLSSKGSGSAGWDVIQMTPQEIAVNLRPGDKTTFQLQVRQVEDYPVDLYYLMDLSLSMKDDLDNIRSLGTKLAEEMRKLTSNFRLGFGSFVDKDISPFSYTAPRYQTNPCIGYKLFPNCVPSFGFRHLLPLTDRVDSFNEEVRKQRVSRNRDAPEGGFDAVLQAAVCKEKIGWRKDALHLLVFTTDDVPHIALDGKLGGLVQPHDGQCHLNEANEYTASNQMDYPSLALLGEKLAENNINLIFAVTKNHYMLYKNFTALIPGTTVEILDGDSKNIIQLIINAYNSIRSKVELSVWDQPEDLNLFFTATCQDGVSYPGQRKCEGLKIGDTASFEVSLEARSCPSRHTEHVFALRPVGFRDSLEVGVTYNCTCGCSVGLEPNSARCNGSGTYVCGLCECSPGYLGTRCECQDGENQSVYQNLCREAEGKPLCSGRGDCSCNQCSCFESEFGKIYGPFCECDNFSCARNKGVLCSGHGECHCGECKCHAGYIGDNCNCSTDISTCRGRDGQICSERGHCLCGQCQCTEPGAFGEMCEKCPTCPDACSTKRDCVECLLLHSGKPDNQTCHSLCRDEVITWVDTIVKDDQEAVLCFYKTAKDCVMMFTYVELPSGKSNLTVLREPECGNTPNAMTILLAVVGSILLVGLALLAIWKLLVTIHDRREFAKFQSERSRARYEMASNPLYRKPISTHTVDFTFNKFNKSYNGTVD

Consider `N=C(N)NCCC[C@@H]1NC(=O)[C@H](CCCCN)NC(=O)[C@@H](Cc2ccc(O)cc2)NC(=O)[C@H](CC(=O)O)NC(=O)CNC1=O` [cyclo RGDyK], for which the “effect on irisin-induced phosphorylation of FAK” value is given as “prevented phosphorylation of FAK significantly” (HEK293T integrin αV/β5, 10 nM cyclo RGDyK) and “blocked the phosphorylation completely” (HEK293T integrin αV/β5, 100 nM cyclo RGDyK). Moreover, the pIC50 (HEK293T with forced expression of integrin αV/β5, in the presence of irisin, from immunoblot, read-out: IC50 for blocking irisin-integrin αV/β5 signaling (phosphorylation of FAK)) is 7.30 to 8.00.
